Measurements published in patent US20250236609A1, “VPS34 INHIBITORS AND METHODS OF USE THEREOF” (Deciphera Pharmaceuticals, LLC, priority 2023, published 2025).

Key:
VPS34 = VPS34 (Homo sapiens (Human), UniProt Q8NEB9); assay: Biochemical Assay for VPS34 (ADP-Glo kinase activity assay); details: 25 nM VPS34, 1 mM ATP, 1-hour incubation at 37° C.; read-out: VPS34 (Inhibition of biochemical activity of VPS34, IC50)
Experimental: Activity of VPS34 kinase was determined using an ADP-Glo kinase activity assay (Promega Corp). Assays were conducted in 384-well plates (5 μL assay volume) using 25 nM VPS34 (ThermoFisher Scientific), […] PI:3PS Lipid Kinase Substrate (Promega Corp.), and 1 mM ATP in kinase buffer. Inhibition of VPS34 was measured by adding serial diluted test compound (final assay concentration of 0.1% DMSO) followed by a 1-hour incubation at 37° C. ADP-Glo reagent was then added ([…]) followed by a 40 min incubation at rt. Kinase detection reagent was then added ([…]) and followed by a 60 min incubation at rt. Luminescence was then detected. The RLU at each compound concentration of was converted to percent inhibition using controls (i.e., reaction with no test compound and reaction with a known inhibitor) and IC50 values were calculated by fitting a four-parameter sigmoidal curve to the data using GeneData Screener software.
VPS34 Protein Sequence (Full Length with GST Tag)

[1] = target: PI3K (p110α (E542K)/p85α) (Homo sapiens (Human), UniProt P42336, E542K); assay: Lipid kinase selectivity panel (Reaction Biology); type: biochemical; details: 1 μM compound, single dose duplicates, 10 μM ATP; read-out: Percent inhibition relative to DMSO control, PI3K (p110α (E542K)/p85α)
Experimental: (§1) The compounds of the present invention were tested in a standard lipid kinase selectivity panel: 16 other lipid kinases (Reaction Biology, Malvern, PA, USA), under conditions of non-disclosure, non-dissemination, and non-use. In brief, compounds (see Table 2) were tested at in single dose duplicates at 1 μM against lipid kinases, including PI3Kα, PI3Kβ, and PI3Kδ, and reactions were carried out at 10 μM ATP.

PI3KC2α = PI3KC2α (Homo sapiens (Human), UniProt O00443); assay: Lipid kinase selectivity panel (Reaction Biology); type: biochemical; details: 1 μM compound, single dose duplicates, 10 μM ATP; read-out: Percent inhibition relative to DMSO control, PI3KC2α
Experimental: as §1

PI3K (p110α/p65α) = PI3K (p110α/p65α) (Homo sapiens (Human), UniProt P42336); assay: Lipid kinase selectivity panel (Reaction Biology); type: biochemical; details: 1 μM compound, single dose duplicates, 10 μM ATP; read-out: Percent inhibition relative to DMSO control, PI3K (p110α/p65α)
Experimental: as §1

PI3Kg (p110γ) = PI3Kg (p110γ) (Homo sapiens (Human), UniProt P48736); assay: Lipid kinase selectivity panel (Reaction Biology); type: biochemical; details: 1 μM compound, single dose duplicates, 10 μM ATP; read-out: Percent inhibition relative to DMSO control, PI3Kg (p110γ)
Experimental: as §1

[2] = target: PI3K (p110α (H1047R)/p85α) (Homo sapiens (Human), UniProt P42336, H1047R); assay: Lipid kinase selectivity panel (Reaction Biology); type: biochemical; details: 1 μM compound, single dose duplicates, 10 μM ATP; read-out: Percent inhibition relative to DMSO control, PI3K (p110α (H1047R)/p85α)
Experimental: as §1

PI3Kd (p110δ/p85α) = PI3Kd (p110δ/p85α) (Homo sapiens (Human), UniProt O00329); assay: Lipid kinase selectivity panel (Reaction Biology); type: biochemical; details: 1 μM compound, single dose duplicates, 10 μM ATP; read-out: Percent inhibition relative to DMSO control, PI3Kd (p110δ/p85α)
Experimental: as §1

[3] = target: PI3K (p110α (E545K)/p85α) (Homo sapiens (Human), UniProt P42336, E545K); assay: Lipid kinase selectivity panel (Reaction Biology); type: biochemical; details: 1 μM compound, single dose duplicates, 10 μM ATP; read-out: Percent inhibition relative to DMSO control, PI3K (p110α (E545K)/p85α)
Experimental: as §1

PI3Kb (p110β/p85α) = PI3Kb (p110β/p85α) (Homo sapiens (Human), UniProt P42338); assay: Lipid kinase selectivity panel (Reaction Biology); type: biochemical; details: 1 μM compound, single dose duplicates, 10 μM ATP; read-out: Percent inhibition relative to DMSO control, PI3Kb (p110β/p85α)
Experimental: as §1

PI3Kα (p110α/p85α) = PI3Kα (p110α/p85α) (Homo sapiens (Human), UniProt P42336); assay: Lipid kinase selectivity panel (Reaction Biology); type: biochemical; details: 1 μM compound, single dose duplicates, 10 μM ATP; read-out: Percent inhibition relative to DMSO control, PI3Kα (p110α/p85α)
Experimental: as §1

PI3KC2α, sequence (O00443 whole entry, species assumed): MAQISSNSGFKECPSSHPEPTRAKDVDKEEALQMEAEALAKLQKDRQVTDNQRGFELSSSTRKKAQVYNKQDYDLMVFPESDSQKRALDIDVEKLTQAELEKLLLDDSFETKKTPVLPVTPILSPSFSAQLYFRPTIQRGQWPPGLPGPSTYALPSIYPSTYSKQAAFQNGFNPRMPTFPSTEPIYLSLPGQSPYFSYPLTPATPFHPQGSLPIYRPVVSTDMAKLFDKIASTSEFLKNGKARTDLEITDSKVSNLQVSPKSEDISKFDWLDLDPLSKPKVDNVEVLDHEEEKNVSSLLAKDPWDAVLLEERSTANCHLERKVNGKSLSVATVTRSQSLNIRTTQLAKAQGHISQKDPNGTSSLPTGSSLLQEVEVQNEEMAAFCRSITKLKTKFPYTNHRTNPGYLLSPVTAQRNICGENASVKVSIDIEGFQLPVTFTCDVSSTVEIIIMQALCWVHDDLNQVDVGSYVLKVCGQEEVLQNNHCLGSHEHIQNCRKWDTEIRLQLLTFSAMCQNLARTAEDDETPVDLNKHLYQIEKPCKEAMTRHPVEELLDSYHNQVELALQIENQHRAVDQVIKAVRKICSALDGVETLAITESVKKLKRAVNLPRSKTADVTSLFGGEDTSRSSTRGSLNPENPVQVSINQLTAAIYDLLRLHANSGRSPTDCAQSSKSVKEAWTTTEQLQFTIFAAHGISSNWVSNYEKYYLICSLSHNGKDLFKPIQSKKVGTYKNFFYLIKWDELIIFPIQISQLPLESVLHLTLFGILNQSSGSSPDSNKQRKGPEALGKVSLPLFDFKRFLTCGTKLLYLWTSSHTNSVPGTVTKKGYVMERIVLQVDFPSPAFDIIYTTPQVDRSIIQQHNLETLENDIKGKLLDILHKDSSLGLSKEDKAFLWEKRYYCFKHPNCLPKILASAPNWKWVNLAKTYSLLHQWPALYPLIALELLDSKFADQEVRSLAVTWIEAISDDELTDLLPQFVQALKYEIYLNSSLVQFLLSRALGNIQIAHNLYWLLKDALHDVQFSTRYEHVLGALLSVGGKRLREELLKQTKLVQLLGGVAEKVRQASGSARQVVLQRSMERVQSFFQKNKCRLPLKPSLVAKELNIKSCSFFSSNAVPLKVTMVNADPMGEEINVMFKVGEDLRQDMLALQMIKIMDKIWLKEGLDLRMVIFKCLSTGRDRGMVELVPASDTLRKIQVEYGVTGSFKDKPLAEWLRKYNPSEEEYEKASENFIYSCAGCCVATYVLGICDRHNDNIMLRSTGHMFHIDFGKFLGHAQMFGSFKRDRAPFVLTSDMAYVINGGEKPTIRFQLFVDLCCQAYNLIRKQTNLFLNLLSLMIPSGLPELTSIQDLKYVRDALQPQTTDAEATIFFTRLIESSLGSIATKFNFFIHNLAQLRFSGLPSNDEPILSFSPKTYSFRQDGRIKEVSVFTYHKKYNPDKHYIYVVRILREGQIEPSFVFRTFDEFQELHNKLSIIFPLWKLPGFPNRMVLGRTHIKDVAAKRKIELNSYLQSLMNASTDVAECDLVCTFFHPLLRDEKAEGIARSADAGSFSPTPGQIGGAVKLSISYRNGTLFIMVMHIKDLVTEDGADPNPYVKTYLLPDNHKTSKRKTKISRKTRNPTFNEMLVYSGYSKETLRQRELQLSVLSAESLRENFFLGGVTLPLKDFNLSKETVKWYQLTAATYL
PI3K (p110α (H1047R)/p85α), sequence (P42336 whole entry H1047R): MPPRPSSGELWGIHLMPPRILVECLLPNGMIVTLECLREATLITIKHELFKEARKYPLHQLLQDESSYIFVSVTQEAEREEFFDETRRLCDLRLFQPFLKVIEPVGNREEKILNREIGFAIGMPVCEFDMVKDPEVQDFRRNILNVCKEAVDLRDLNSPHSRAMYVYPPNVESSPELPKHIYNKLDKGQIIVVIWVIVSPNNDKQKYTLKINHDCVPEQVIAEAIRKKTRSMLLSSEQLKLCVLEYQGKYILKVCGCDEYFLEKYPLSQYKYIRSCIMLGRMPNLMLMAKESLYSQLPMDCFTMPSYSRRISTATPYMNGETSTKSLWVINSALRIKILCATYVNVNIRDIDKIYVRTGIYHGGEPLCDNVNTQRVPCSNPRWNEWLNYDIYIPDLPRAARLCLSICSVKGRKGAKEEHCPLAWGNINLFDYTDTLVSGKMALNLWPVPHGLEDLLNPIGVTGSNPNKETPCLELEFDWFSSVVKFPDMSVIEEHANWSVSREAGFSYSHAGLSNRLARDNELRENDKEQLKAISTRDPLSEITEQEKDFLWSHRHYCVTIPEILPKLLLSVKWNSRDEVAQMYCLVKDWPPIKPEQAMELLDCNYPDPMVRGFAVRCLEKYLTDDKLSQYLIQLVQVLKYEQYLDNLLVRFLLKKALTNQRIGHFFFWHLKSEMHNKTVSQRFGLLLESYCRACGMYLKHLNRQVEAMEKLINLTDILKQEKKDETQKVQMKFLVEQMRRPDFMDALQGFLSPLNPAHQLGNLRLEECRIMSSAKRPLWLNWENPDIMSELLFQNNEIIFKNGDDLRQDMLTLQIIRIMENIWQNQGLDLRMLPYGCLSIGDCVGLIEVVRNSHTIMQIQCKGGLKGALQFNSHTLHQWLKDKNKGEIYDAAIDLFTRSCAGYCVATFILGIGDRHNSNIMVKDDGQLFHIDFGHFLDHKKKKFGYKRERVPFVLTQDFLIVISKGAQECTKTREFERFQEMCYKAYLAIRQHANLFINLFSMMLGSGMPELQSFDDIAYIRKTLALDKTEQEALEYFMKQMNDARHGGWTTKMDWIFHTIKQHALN
PI3K (p110α (H1047R)/p85α), sequence (P27986 whole entry partner): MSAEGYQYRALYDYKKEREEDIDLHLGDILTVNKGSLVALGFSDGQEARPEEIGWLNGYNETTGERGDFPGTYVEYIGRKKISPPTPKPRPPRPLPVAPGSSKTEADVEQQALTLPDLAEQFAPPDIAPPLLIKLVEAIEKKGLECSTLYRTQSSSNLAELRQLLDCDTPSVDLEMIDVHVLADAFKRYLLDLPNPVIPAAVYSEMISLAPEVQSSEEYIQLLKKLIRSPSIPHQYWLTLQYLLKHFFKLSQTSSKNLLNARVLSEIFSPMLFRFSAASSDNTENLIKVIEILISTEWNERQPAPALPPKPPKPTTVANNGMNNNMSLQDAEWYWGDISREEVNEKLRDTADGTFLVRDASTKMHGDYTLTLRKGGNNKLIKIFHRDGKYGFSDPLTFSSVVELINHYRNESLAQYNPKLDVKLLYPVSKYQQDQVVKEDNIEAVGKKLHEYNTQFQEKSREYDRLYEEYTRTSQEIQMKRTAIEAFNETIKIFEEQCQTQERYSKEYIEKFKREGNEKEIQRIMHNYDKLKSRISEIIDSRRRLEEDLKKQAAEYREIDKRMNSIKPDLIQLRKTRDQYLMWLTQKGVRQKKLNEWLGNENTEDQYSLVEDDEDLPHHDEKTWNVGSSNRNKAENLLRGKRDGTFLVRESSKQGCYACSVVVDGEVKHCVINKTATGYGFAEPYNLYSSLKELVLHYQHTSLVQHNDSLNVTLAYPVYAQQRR
PI3K (p110α (E542K)/p85α), sequence (P42336 whole entry E542K): as the sequence (P42336 whole entry H1047R) above, with E542K, R1047H counted along it
PI3K (p110α (E542K)/p85α), sequence (P27986 whole entry partner): as the sequence (P27986 whole entry partner) above
VPS34, sequence (Q8NEB9 other isoform, or with tags, fused parts or gaps): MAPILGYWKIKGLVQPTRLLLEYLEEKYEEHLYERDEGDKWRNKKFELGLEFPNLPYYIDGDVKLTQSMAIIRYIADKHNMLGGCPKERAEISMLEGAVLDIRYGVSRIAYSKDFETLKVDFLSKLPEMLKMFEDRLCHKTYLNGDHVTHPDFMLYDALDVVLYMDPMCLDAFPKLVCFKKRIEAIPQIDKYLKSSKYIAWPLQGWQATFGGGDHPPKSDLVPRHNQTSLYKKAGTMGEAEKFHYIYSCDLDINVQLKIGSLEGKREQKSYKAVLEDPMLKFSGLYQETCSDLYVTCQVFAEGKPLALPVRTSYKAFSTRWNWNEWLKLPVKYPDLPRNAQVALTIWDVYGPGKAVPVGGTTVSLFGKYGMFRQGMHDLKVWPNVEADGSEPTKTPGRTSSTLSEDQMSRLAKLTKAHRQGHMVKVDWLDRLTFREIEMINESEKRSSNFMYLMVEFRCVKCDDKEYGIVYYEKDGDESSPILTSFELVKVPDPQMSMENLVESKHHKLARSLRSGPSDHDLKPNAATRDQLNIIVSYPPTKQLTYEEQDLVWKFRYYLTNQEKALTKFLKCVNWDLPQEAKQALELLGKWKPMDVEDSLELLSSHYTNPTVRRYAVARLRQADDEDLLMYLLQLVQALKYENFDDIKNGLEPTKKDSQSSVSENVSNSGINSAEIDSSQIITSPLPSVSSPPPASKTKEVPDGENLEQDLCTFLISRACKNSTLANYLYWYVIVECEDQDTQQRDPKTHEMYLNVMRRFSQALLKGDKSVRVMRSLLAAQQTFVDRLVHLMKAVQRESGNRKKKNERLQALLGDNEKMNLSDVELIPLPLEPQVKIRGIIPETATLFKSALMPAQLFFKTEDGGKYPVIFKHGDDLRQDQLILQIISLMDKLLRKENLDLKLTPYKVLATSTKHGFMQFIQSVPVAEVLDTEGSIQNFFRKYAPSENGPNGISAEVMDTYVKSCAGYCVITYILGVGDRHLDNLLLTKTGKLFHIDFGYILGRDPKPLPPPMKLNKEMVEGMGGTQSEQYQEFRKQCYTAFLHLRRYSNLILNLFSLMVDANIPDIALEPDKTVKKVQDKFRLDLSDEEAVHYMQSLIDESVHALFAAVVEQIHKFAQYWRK
PI3K (p110α (E545K)/p85α), sequence (P42336 whole entry E545K): as the sequence (P42336 whole entry H1047R) above, with E545K, R1047H counted along it
PI3K (p110α (E545K)/p85α), sequence (P27986 whole entry partner): as the sequence (P27986 whole entry partner) above
PI3Kα (p110α/p85α), sequence (P42336 whole entry, species assumed): as the sequence (P42336 whole entry H1047R) above, with R1047H counted along it
PI3Kα (p110α/p85α), sequence (P27986 whole entry partner, species assumed): as the sequence (P27986 whole entry partner) above
PI3K (p110α/p65α), sequence (P42336 whole entry, species assumed): as the sequence (P42336 whole entry H1047R) above, with R1047H counted along it

Row | SMILES | IC50 (VPS34) | inhibition at 1 µM [1] | inhibition at 1 µM (PI3KC2α) | inhibition at 1 µM (PI3K (p110α/p65α)) | inhibition at 1 µM (PI3Kg (p110γ)) | inhibition at 1 µM [2] | inhibition at 1 µM (PI3Kd (p110δ/p85α)) | inhibition at 1 µM [3] | inhibition at 1 µM (PI3Kb (p110β/p85α)) | inhibition at 1 µM (PI3Kα (p110α/p85α))
1 | COC(=O)Nc1cc(-c2cc(-c3cccnc3C(F)(F)F)[nH]c(=O)c2)c(F)cn1 [Example 5] | 100 to 500 nM | 32% | 3% | 15% | 23% | 35% | 58% | 32% | -6% | 17%
2 | COC(=O)Nc1ncc(C)c(-c2cc(-c3cccnc3C(F)(F)F)[nH]c(=O)c2)n1 [Example 6] | 500 to 1000 nM | 4% | -3% | -26% | 5% | 19% | -2% | 3% | -14% | -2%
3 | COC(=O)Nc1cc(-c2cc(N3CCCC[C@@H]3C(F)(F)F)[nH]c(=O)c2)c(N)cn1 [Example 14] | ≤ 100 nM | -5% | -1% | -7% | 11% | 0% | -2% | 3% | -9% | -3%
4 | COC(=O)Nc1cc(-c2cc(-c3cccnc3C(F)(F)F)[nH]c(=O)c2)c(N)cn1 [Example 15] | 100 to 500 nM | -11% | -26% | -12% | 16% | 10% | -5% | -2% | -4% | -19%
5 | O=C(Nc1cc(-c2cc(N3CCCC[C@@H]3C(F)(F)F)[nH]c(=O)c2)c(Cl)cn1)C1CC1 [Example 16] | 100 to 500 nM | -2% | -11% | -24% | 29% | 14% | -2% | -8% | -5% | -24%
6 | COC(=O)Nc1cc(-c2cc(N3CCCC[C@@H]3C(F)(F)F)[nH]c(=O)c2)c(CF)cn1 [Example 18] | 100 to 500 nM | -1% | -18% | -2% | -13% | 16% | 13% | 2% | -3% | -5%
7 | COC(=O)Nc1cc(-c2cc(N3CCCC[C@@H]3C)[nH]c(=O)c2)c(C)cn1 [Example 20] | 100 to 500 nM | -5% | 5% | -11% | -10% | -11% | -4% | -3% | -9% | -2%
8 | Cc1cnc(NC(=O)CC2CNCC2(F)F)cc1-c1cc(N2CCCC[C@@H]2C(F)(F)F)[nH]c(=O)c1 (stereo partly drawn) [Example 22] | 100 to 500 nM | -4% | 2% | -4% | -8% | -4% | 4% | -1% | -3% | 3%
9 | COCCC(=O)N1CCN(c2cc(-c3cc(NC(=O)C4CC4)ncc3C)cc(=O)[nH]2)[C@@H](C)C1 [Example 95] | 1000 to 10000 nM |  |  |  |  |  |  |  |  | 
10 | Cc1nccc(Nc2cc(-c3cc(NS(=O)(=O)c4ccc(F)cc4F)[nH]c(=O)c3)c(C)cn2)n1 [Example 96, 2,4-difluoro-N-(5′-methyl-2′-((2-methylpyrimidin-4-yl)amino)-6-oxo-1,6-dihydro-[4,4′-bipyridin]-2-yl)benzenesulfonamide] | 100 to 500 nM |  |  |  |  |  |  |  |  | 
11 | Cc1cnc(NC(=O)C2CC2)cc1-c1cc(NS(=O)(=O)c2ccc(F)cc2F)[nH]c(=O)c1 [compound 97] | 100 to 500 nM |  |  |  |  |  |  |  |  | 

Other lines, results leading:

Row | IC50 (VPS34) | inhibition at 1 µM [1] | inhibition at 1 µM (PI3KC2α) | inhibition at 1 µM (PI3K (p110α/p65α)) | inhibition at 1 µM (PI3Kg (p110γ)) | inhibition at 1 µM [2] | inhibition at 1 µM (PI3Kd (p110δ/p85α)) | inhibition at 1 µM [3] | inhibition at 1 µM (PI3Kb (p110β/p85α)) | inhibition at 1 µM (PI3Kα (p110α/p85α)) | SMILES
12 | ≤ 100 nM | 4% | -1% | 5% | 12% | 10% | 9% | 15% | 13% | 22% | COC(=O)Nc1cc(-c2cc(N3CCCC[C@@H]3C(F)(F)F)[nH]c(=O)c2)c(C)cn1 [Example 1, methyl (R)-(5-methyl-2′-oxo-6′-(2-(trifluoromethyl)piperidin-1-yl)-1′,2′-dihydro-[4,4′-bipyridin]-2-yl)carbamate]
13 | 100 to 500 nM | 0% | 0% | -23% | -16% | -3% | 1% | 3% | -12% | -3% | CNC(=O)Nc1cc(-c2cc(N3CCCC[C@@H]3C(F)(F)F)[nH]c(=O)c2)c(C)cn1 [Example 10]
14 | ≤ 100 nM | -3% | -21% | -17% | 7% | 6% | 14% | -5% | -10% | -15% | Cc1cnc(NC(=O)C2CC2)cc1-c1cc(N2CCCC[C@@H]2C(F)(F)F)[nH]c(=O)c1 [Example 17]
15 | 100 to 500 nM | -4% | 2% | -6% | -7% | -17% | -9% | -2% | -9% | -1% | CNCC(=O)Nc1cc(-c2cc(N3CCCC[C@@H]3C(F)(F)F)[nH]c(=O)c2)c(C)cn1 [Example 24]
16 | 100 to 500 nM | 1% | -5% | 0% | -4% | -7% | -7% | -1% | -7% | 4% | Cc1cnc(NC(=O)CCN(C)C)cc1-c1cc(N2CCCC[C@@H]2C(F)(F)F)[nH]c(=O)c1 [Example 25]
17 | 100 to 500 nM | -2% | 4% | -4% | -5% | -8% | -5% | -1% | -10% | -2% | Cc1cnc(NC(=O)CCN2CCCC2)cc1-c1cc(N2CCCC[C@@H]2C(F)(F)F)[nH]c(=O)c1 [Example 26]
18 | 100 to 500 nM | 1% | 0% | 7% | -8% | -11% | 2% | 1% | -1% | 4% | Cc1cnc(NC(=O)CC2CNC2)cc1-c1cc(N2CCCC[C@@H]2C(F)(F)F)[nH]c(=O)c1 [Example 27]
